These results are taken from publication PMC9907956 (Journal of inorganic biochemistry, 2022).

The test system of assay [1] is CYP11B2. The assay is described as follows: CYP11B2 substrate binding with varying adrenodoxin. As to conditions: over 40-fold range of excess adrenodoxin. Set-up: species or system human.
For assay [2], the system named is CYP11B2. Particulars: increasing adrenodoxin up to 40-fold; ref [8]; cited from earlier work.
The target of assay [3] is T1, human CYP11B1 (Homo sapiens, UniProt P15538).
T1 sequence (P15538 25-503): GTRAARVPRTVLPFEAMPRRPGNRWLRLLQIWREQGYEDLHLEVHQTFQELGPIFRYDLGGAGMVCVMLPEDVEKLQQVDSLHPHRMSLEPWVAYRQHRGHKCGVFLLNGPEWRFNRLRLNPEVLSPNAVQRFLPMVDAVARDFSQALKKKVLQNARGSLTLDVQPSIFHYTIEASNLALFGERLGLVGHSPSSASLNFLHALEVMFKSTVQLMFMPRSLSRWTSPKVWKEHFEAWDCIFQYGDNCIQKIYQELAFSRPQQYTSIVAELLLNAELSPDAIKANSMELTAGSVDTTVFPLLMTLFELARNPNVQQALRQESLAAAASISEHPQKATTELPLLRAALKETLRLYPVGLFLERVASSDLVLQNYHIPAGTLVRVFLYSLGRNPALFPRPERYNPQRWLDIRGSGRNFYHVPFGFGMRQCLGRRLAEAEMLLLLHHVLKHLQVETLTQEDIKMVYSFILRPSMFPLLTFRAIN
As to the kind of experiment: Spectral ligand binding titration. As to conditions: for Kd: dissociation constant Kd, 1 μM CYP11B1; for Amax: 0.2 μM CYP11B1, 5 cm cuvettes.

The target in assay [4] is T1, human CYP11B1. It is filed as biochemical. As to conditions: 1:1 condition to 1:40 excess adrenodoxin.
Assay [5] deals with T2, adrenodoxin-CYP11B1 fusion enzyme (Homo sapiens, UniProt P10109+P15538).
T2 sequence (P10109+P15538 with tags, fused parts or gaps): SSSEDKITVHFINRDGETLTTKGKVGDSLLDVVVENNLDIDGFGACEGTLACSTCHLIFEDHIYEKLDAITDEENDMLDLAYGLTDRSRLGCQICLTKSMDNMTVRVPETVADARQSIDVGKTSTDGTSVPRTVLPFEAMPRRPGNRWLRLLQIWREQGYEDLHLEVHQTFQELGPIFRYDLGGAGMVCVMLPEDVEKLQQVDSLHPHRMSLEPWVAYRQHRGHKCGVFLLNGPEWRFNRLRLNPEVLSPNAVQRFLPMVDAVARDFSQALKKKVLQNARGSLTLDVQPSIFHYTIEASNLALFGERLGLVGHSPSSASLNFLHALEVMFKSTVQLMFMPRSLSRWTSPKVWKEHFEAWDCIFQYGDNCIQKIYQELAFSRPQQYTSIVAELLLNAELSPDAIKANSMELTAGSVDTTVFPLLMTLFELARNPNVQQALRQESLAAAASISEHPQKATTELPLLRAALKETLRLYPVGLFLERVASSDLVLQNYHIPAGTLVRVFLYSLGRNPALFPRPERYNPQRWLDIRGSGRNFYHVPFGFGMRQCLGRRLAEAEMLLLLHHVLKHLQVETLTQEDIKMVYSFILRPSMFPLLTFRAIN
The assay is described as follows: Spectral ligand binding titration of the adrenodoxin-CYP11B1 fusion enzyme.

As to `C[C@]12CC[C@H]3[C@@H](CCC4=CC(=O)CC[C@@]43C)[C@@H]1CC[C@@H]2C(=O)CO` [11-deoxycorticosterone], the “fold increase of Amax/Kd for CYP11B2” value with CYP11B2 [1] was “more than 3 fold”. Further, in the assay with CYP11B2 [2], the “fold effect on Km for CYP11B2” value is reported as 1.6 fold.

Take `C[C@]12CCC(=O)C=C1CC[C@@H]1[C@@H]2CC[C@@]2(C)[C@H]1CC[C@]2(O)C(=O)CO` [11-deoxycortisol]: the Kd – broadly, a measure of binding affinity in units of concentration – on human CYP11B1 [3] (10-fold excess adrenodoxin) is 12.2 µM; at human CYP11B1 [3] (40-fold excess adrenodoxin), 7.3 µM; at human CYP11B1 [3] (equimolar adrenodoxin (1 μM)), 20.8 µM; on human CYP11B1 [3] (no adrenodoxin), 17 µM. In addition, on human CYP11B1 [4], the “fold increase in catalytic efficiency (kcat/Km)” value is given as “greater than 11 fold”. Further, in assay [5] (adrenodoxin fused), the “fold increase of Amax/Kd (binding efficiency)” value is given as “more than 11 fold”. In assay [5] (printed as higher), the “fold difference of Kd, fusion vs same 1:1 ratio of non-fused proteins” value is recorded as ~ 5 fold.

As for `N#Cc1ccc([C@H]2CCc3cncn32)c(F)c1` [LCI699, osilodrostat], the Amax at human CYP11B1 [3] (1:1 CYP11B1 to adrenodoxin) came to 0.015; on human CYP11B1 [3] (CYP11B1 alone) it was 0.006.
